Tested on: CHO-K1 cell strain
Assay: Changes in intracellular Ca2+ concentration in CHO-K1 host cell not transfected (negative control)
Assay type: cell-based, Chinese hamster
Procedure: The specific method for measuring changes in the intracellular Ca^2+ concentration in the HA-ph01207#10-6 cell strain induced by CCK-8S (SEQ ID NO: 14) and the results are described below. The HA-ph01207#10-6 cell strain was seeded on a 96-well plate (a plate with a black wall and a transparent bottom) at a cell count of 2×10^4/100 μL medium/well and cultured at 37° C. in the presence of 5% CO2. As a medium, DMEM/F12 (Gibco) containing 10% fetal calf serum (Moregate) was used. On the following day, 50 μL of the medium was removed from each well, 50 μL of a loading buffer was added to each well, and the mixture was reacted at room temperature for 1.5 h, so that a fluorescent dye contained in the loading buffer should be taken up into the cell. The loading buffer was prepared by dissolving component A of the FLIPR Calcium 3 Assay Kit (Molecular Device) in a solution obtained by adding 0.1 mL of 500 mM probenecid (Sigma) to 9.9 mL of component B. After reaction, changes over time in the fluorescence intensity in each well after addition of CCK-8S (Peptide Institute, Inc.) were measured using the FLEX station (Molecular Device). Furthermore, similar measurement was performed for CCK-8NS (Peptide Institute, Inc.) and CCK-4 (Peptide Institute, Inc.). 0.52 mg of CCK-8S (SEQ ID NO: 14) was dissolved in 4.5 mL of 1% NaHCO3 (Wako) to prepare a solution having 0.1 mM concentration. 0.53 mg of CCK-8NS was dissolved in 0.50 mL of dimethyl sulfoxide (DMSO, Sigma), and then 4.50 mL of redistilled water H2O was added to prepare a solution having 0.1 mM concentration. 0.54 mg of CCK-4 was dissolved in 0.46 mL of DMSO, 4.09 mL of redistilled water was added to prepare a solution having 0.2 mM concentration. CCK-8S (SEQ ID NO: 14), CCK-8NS, and CCK-4 were diluted in phosphate-buffered physiological saline (PBS) to prepare 5 nM solutions, and 25 μL each was added (final concentration 1 nM) to perform measurement. As a positive control for including an increase in the intracellular Ca^2+ concentration, A23187 (Calbiochem) was used at a final concentration of 10 μM. As a negative control, the CHO-K1 cell strain used to prepare the HA-ph01207#10-6 cell strain as a host was used. Since the CHO-K1 cell strain was not transfected with the ph01207-expressing vector, the ph01207 gene product was not expressed.
Changes in the intracellular calcium (Ca^2+) concentration induced by CCK-8S were measured by a method similar to the method described in Example 5 using the 7tmHR stably-expressing strain and the hk01941 stably-expressing strain prepared in Example 7. As a control, a host cell not transfected with the 7tmHR-expressing vector or the hk01941-expressing vector was also used.
Cells were seeded in a 96-well plate (a plate with a black wall and a transparent bottom) at a cell count of 3×10^4/100 μL of medium/well and cultured overnight at 37° C. in a 5% CO2 incubator. On the following day, 50 μL of the medium was removed from each well, […] of a loading buffer was added to each well, and the mixture was reacted at room temperature for 1 h, so that a fluorescent dye contained in the loading buffer was taken up into the cell. The loading buffer was prepared by a method similar to the method described in Example 5. After reaction, changes over time in the fluorescence intensity in each well after addition of CCK-8S were measured using the FLEX station (Molecular Device). CCK-8S was used at a final concentration of 10 pM to 1 μM. Furthermore, as a positive control of the assay, A23187 was used at a final concentration of 20 μM.
Cells were seeded in a 96-well plate (a plate with a black wall and a transparent bottom) at a cell count of 3×10^4/100 μL of medium/well and cultured overnight at 37° C. in a 5% CO2 incubator. […]

cholecystokinin octapeptide sulfated form [CCK-8S]
Change in intracellular Ca2+ concentration (fluorescence intensity) (CHO-K1 not transfected, peptide 1 nM (Example 5)): not increased | Change in intracellular calcium concentration after addition of CCK-8S (host cell not transfected with the expressing vector (Examples 8, 9)): no change

CNc1ccc2oc(C[C@H]3O[C@@]4(CC[C@H]3C)O[C@H]([C@H](C)C(=O)c3ccc[nH]3)[C@H](C)C[C@H]4C)nc2c1C(=O)O [A23187]
Change in intracellular Ca2+ concentration (fluorescence intensity) (CHO-K1 not transfected, A23187 10 μM (Example 5)): increased | Change in intracellular Ca2+ concentration (fluorescence intensity) (host cell CHO-K1 not transfected, A23187 20 μM (Examples 8, 9)): increased

Source: patent US20100029702A1, “Method For Identification of Compound Having Anti-Anxiety Effect” (priority 2006, published 2010)
